Holding throughout (format): cell-based, human
The test system of experiment [1] is K562. Briefly: TUNEL / propidium iodide flow cytometry, K562. The settings on record: taurolidine 100 μg/ml or anisomycin 1 μg/ml for 4 h, assayed at 24 hours, mean ± SD. As for the experimental part:
In the second method, DNA fragmentation was detected via TUNEL assay according to the manufacturer's instructions. With this methodology, 2×10^6 cells were fixed with 2% paraformaldehyde, permeabilized with 0.1% Triton X-100/0.1% citrate, incubated at 37° C. with terminal deoxynucleotidyl transferase and FITC-dUTP, rinsed and analyzed by flow cytometry. Enhanced FITC signal indicates apoptosis-specific DNA fragmentation. Gavriali, et al, "Identification of programmed cell death in situ via specific labeling of nuclear DNA fragmentation," J Cell Biol 119:493 (1992). Parallel aliquots of unfixed cells were treated with PI and FITC-conjugated anti-CD14 and analyzed by flow cytometry, in order to identify cells with permeable cell membranes (since PI binds to DNA but is excluded from cells with intact plasma membranes) and also to determine the cell-specificity of the apoptotic signal.
In another study, TUNEL assays were performed on all cell lines 6 hours after cells were initially exposed to taurolidine (cells were treated for 4 hours, rinsed, and then incubated for 2 more hours before TUNEL assay was performed).
. Taurolidine and anisomycin induced apoptosis in MM6, HL-60, and Jurkat cells (Table VIII). MM6 and HL-60 cells were similarly effected, with >80% TUNEL-positive cells after 6 hours. Jurkat cells were less sensitive, with approximately 50% of cells induced to undergo apoptosis after taurolidine treatment. After 6 hours, 73% of anisomycin-treated REH cells were apoptotic, with less than 20% of taurolidine-treated REH cells being TUNEL-positive. However, assay of cells 24 hours after
^a Analysis by flow cytometry after staining cells with propidium
iodide and processing for TUNEL.
Data are percent of total cell-size events, and are expressed as mean ±
Cells were treated for 4 hours with taurolidine (100 μg/ml) or
anisomycin (1 μg/ml), and then assayed at 6 hours.
Data are percent of total cell-sized events, and are expressed as mean ±
anisomycin (1 μg/ml), and then assayed at 24 hours.

Experiment [2] concerns GM5387 (fibroblasts). The experiment in a line: growth rate (proliferation) after taurolidine treatment, GM5387. To be noted: GM5387, 50 and 100 μg/ml taurolidine. The protocol:
FIGS. 11A and 11B depict cell viability and growth rates for GM5387 cell line following taurolidine treatment, in terms of % trypan blue negative cells and % cell number, respectively. Cells were treated with various concentrations of taurolidine for 4 hours in AIM-V+0.01% BCS. After aliquots were collected for LDH assay, the remainder of the culture was rinsed in HBSS and resuspended in RPMI+10% BCS without taurolidine. Counts of trypan blue-negative cells (FIG. 11A), and total cell number (FIG. 11B), were recorded daily thereafter (with the measurement at Day 1 being made immediately after the 4 hour taurolidine treatment). Conditions were: no treatment (open circles); 25 μg/ml taurolidine (closed circles); 50 μg/ml taurolidine (open squares); 100 μg/ml taurolidine (closed squares); and vehicle alone (closed triangles). Doubling times were determined under each condition, and expressed as a percentage of the rate of doubling of untreated cells. These values are located to the right of the growth curves in (FIG. 11B). […]
HL-60 cells treated with 50 μl taurolidine. In these samples, LDH present in the culture medium was 8.3±2.3% of that released by completely lysed cells, compared with 2.3±0.8% measured in control cultures. […] After 4 hour treatment, cells were rinsed and returned to growth medium and monitored for viability and growth over the following 3 days. […]

Experiment [3] has as its system HL-60 cells. The experiment in a line: trypan blue exclusion, HL-60. To be noted: HL-60, 25 μg/ml taurolidine, versus MM6, K562, Jurkat. As for the experimental part: FIGS. 7A and 7B depict cell viability and growth rates for HL-60 cell line following taurolidine treatment, in terms of % trypan blue negative cells and % cell number, respectively. Cells were treated with various concentrations of taurolidine for 4 hours in AIM-V+0.01% BCS. After aliquots were collected for LDH assay, the remainder of the culture was rinsed in HBSS and resuspended in RPMI+10% BCS without taurolidine. Counts of trypan blue-negative cells (FIG. 7A), and total cell number (FIG. 7B), were recorded daily thereafter (with the measurement at Day 1 being made immediately after the 4 hour taurolidine treatment). […] Doubling times were determined under each condition, and expressed as a percentage of the rate of doubling of untreated cells. […]
In these experiments, integrity of cell membranes following taurolidine treatment was assessed by exclusion of trypan blue and by measuring the release of LDH in MM6, K-562, HL-60, and REH cells. […] A parallel aliquot of cells was lysed by three cycles of freeze/thaw and the quantity of LDH released was taken to be 100%. […]
HL-60 cells treated with 50 μl taurolidine. In these samples, LDH present in the culture medium was 8.3±2.3% of that released by completely lysed cells, compared with 2.3±0.8% measured in control cultures. […]

In experiment [4] the test system is MM6 cells. The experiment in a line: DNA fragmentation, agarose gel electrophoresis, MM6. As for the experimental part:
FIG. 13 is an agarose gel depicting DNA fragmentation in response to taurolidine treatment as determined by assay procedures. MM6 cells were incubated with taurolidine or vehicle in RPMI+10% BCS for four hours. Cells were harvested and low molecular weight DNA extracted as described below. C=control cells without taurolidine or vehicle treatment; T=treated with 50 μg/ml taurolidine; V=treated with vehicle alone; and MW=molecular weight markers.
Following treatment with either taurolidine or the vehicle solution, cell death was assessed in one of two ways. In the first method, the DNA fragmentation pattern characteristic of apoptosis was detected by extracting low molecular weight DNA from cells using a phosphate-citrate buffer (Darzynkiewicz, et al., "Assays of cell viability: discrimination of cells dying by apoptosis," Methods Cell Biol 41:15 (1994)) and subjecting the extracted DNA to agarose gel electrophoresis.
Apoptosis is associated with fragmentation of genomic DNA in the internucleosomal linker regions, which can be visualized as a characteristic ladder of DNA fragments upon gel electrophoresis. Arends, M. J. and Wyllie, A. H., "Apoptosis: mechanisms and roles in pathology," Int Rev Exp Path 32:223 (1991). Accordingly, low molecular weight DNA was extracted from taurolidine-treated MM6 cells and subjected to electrophoresis in agarose gels.

As to `O=S1(=O)CCN(CN2CCS(=O)(=O)NC2)CN1` [taurolidine, 4,4'-methylenebis(perhydro-1,2,4-thiadiazin 1,1-dioxide)], in experiment [1], the “% TUNEL-positive” value is “approximately 20%”. In addition, the proliferation after treatment entry in experiment [2] is on record as “inhibited proliferation”. The “trypan blue staining after treatment, sensitivity” value in experiment [3] was “more sensitive”. Also, the DNA fragmentation ladder entry in experiment [4] (MM6, 50 μg/ml taurolidine, 4 h, no LPS) was “prominent ladder pattern of DNA fragments”; in experiment [4] (MM6, LPS present during taurolidine treatment), “identical results”.

Values taken from US6303596A, “Use of taurolidine for treatment of leukemias” (priority 2000, dated 2001).
